Data as given in patent US4442044A, “Process for preparing monoesters and diesters of N-alkyl substituted amino methyl phosphonic acid” (priority 1983, dated 1984).

Legend:
Type in all cases: in vivo
Sugar Beet = experiment: post-emergent herbicidal activity, greenhouse; conditions: Table II, 4 WAT
Procedure, shortened: (§1)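 Seeds or propagules sown in compacted top soil, grown 2–3 weeks in greenhouse, then sprayed with compound solution/suspension containing ~0.4% emulsifier at tabulated rates. Injury scored visually versus untreated controls at ~2 and 4 weeks after treatment, expressed as a herbicidal activity index.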

Johnsongrass [1] = experiment: post-emergent herbicidal activity, greenhouse; conditions: Table I, 4 WAT
Procedure, shortened: as §1

Hemp Sesbania = experiment: post-emergent herbicidal activity, greenhouse; conditions: Table II, 4 WAT
Procedure, shortened: as §1

Quackgrass [2] = experiment: post-emergent herbicidal activity, greenhouse; conditions: Table I, 4 WAT
Procedure, shortened: as §1

Yellow Nutsedge [3] = experiment: post-emergent herbicidal activity, greenhouse; conditions: Table I, 4 WAT
Procedure, shortened: as §1

Wild Buckwheat = experiment: post-emergent herbicidal activity, greenhouse; conditions: Table II, 4 WAT
Procedure, shortened: as §1

Cocklebur [4] = experiment: post-emergent herbicidal activity, greenhouse; conditions: 4 WAT
Procedure, shortened: as §1

Smartweed [5] = experiment: post-emergent herbicidal activity, greenhouse; conditions: 4 WAT
Procedure, shortened: as §1

Soybean = experiment: post-emergent herbicidal activity, greenhouse; conditions: Table II, 4 WAT
Procedure, shortened: as §1

Downy Brome [6] = experiment: post-emergent herbicidal activity, greenhouse; conditions: 4 WAT
Procedure, shortened: as §1

Barnyardgrass [7] = experiment: post-emergent herbicidal activity, greenhouse; conditions: 4 WAT
Procedure, shortened: as §1

Panicum Spp = experiment: post-emergent herbicidal activity, greenhouse; conditions: Table II, 4 WAT
Procedure, shortened: as §1

Velvetleaf [8] = experiment: post-emergent herbicidal activity, greenhouse; conditions: 4 WAT
Procedure, shortened: as §1

Lambsquarters [9] = experiment: post-emergent herbicidal activity, greenhouse; conditions: 4 WAT
Procedure, shortened: as §1

Wheat = experiment: post-emergent herbicidal activity, greenhouse; conditions: Table II, 4 WAT
Procedure, shortened: as §1

Morningglory [10] = experiment: post-emergent herbicidal activity, greenhouse; conditions: 4 WAT
Procedure, shortened: as §1

Rice = experiment: post-emergent herbicidal activity, greenhouse; conditions: Table II, 4 WAT
Procedure, shortened: as §1

Sorghum = experiment: post-emergent herbicidal activity, greenhouse; conditions: Table II, 4 WAT
Procedure, shortened: as §1

Johnsongrass [11] = experiment: pre-emergent herbicidal activity, soil incorporation; conditions: Table III, 2 WAT, 11.2 kg/h
Description: (§2) A good grade of top soil is placed in aluminum pans and compacted to a depth of 0.95 to 1.27 cm. from the top of each pan. A predetermined number of seeds or vegetative propagules of each of several plant species are placed on top of the soil in each pan and then pressed down. Herbicidal compositions prepared as in the previous example are applied by admixture with or incorporation in the top layer of soil.
(§3) In this method, the soil required to cover the seeds and propagules is weighed and admixed with a herbicidal composition containing a known amount of the active ingredient (compound of this invention). The pans are then filled with the admixture and leveled. Watering is carried out by permitting the soil in the pans to absorb moisture through apertures in the pan bottoms. The seed and propagule containing pans are placed on a wet sand bench and maintained for approximately two weeks under ordinary conditions of sunlight and watering. At the end of this period, the number of emerged plants of each species is noted and compared to an untreated control.
(§4) The pre-emergent herbicidal activity index used below is based upon average percent control of each species as follows: […]

Quackgrass [12] = experiment: as above; conditions: Table III, 2 WAT, 11.2 kg/h
Description: as §2, §3, §4

Yellow Nutsedge [13] = experiment: as above; conditions: Table III, 2 WAT, 11.2 kg/h
Description: as §2, §3, §4

Cocklebur [14] = experiment: as above; conditions: Table III, 2 WAT, 11.2 kg/h
Description: as §2, §3, §4

Smartweed [15] = experiment: as above; conditions: Table III, 2 WAT, 11.2 kg/h
Description: as §2, §3, §4

Downy Brome [16] = experiment: as above; conditions: Table III, 2 WAT, 11.2 kg/h
Description: as §2, §3, §4

Barnyardgrass [17] = experiment: as above; conditions: Table III, 2 WAT, 11.2 kg/h
Description: as §2, §3, §4

Velvetleaf [18] = experiment: as above; conditions: Table III, 2 WAT, 11.2 kg/h
Description: as §2, §3, §4

Lambsquarters [19] = experiment: as above; conditions: Table III, 2 WAT, 11.2 kg/h
Description: as §2, §3, §4

Morningglory [20] = experiment: as above; conditions: Table III, 2 WAT, 11.2 kg/h
Description: as §2, §3, §4

CCOCCOC(=O)CNCP(=O)(O)OC(C)C#N (stereo not drawn) [Example 9, glycine, N-[[(1-cyanoethoxy)hydroxyphosphinyl]-methyl],2-ethoxyethyl ester]
post-emergent herbicidal activity index (Sugar Beet; 0.28 kg/h): 3 (75-99% control) | post-emergent herbicidal activity index (Sugar Beet; 1.12 kg/h): 2 (50-74% control) | post-emergent herbicidal activity index (Sugar Beet; 5.6 kg/h): 4 (100% control) | post-emergent herbicidal activity index (Johnsongrass [1]; 5.6 kg/h): 4 (100% control) | post-emergent herbicidal activity index (Johnsongrass [1]; 11.2 kg/h): 4 (100% control) | post-emergent herbicidal activity index (Hemp Sesbania; 0.28 kg/h): 1 (25-49% control) | post-emergent herbicidal activity index (Hemp Sesbania; 1.12 kg/h): 1 (25-49% control) | post-emergent herbicidal activity index (Hemp Sesbania; 5.6 kg/h): 1 (25-49% control) | post-emergent herbicidal activity index (Quackgrass [2]; 5.6 kg/h): 4 (100% control) | post-emergent herbicidal activity index (Quackgrass [2]; 11.2 kg/h): 4 (100% control) | post-emergent herbicidal activity index (Yellow Nutsedge [3]; 5.6 kg/h): 1 (25-49% control) | post-emergent herbicidal activity index (Yellow Nutsedge [3]; 11.2 kg/h): 3 (75-99% control) | post-emergent herbicidal activity index (Wild Buckwheat; 0.28 kg/h): 1 (25-49% control) | post-emergent herbicidal activity index (Wild Buckwheat; 1.12 kg/h): 0 (0-24% control) | post-emergent herbicidal activity index (Wild Buckwheat; 5.6 kg/h): 3 (75-99% control) | post-emergent herbicidal activity index (Cocklebur [4]; Table I, 5.6 kg/h): 3 (75-99% control) | post-emergent herbicidal activity index (Cocklebur [4]; Table I, 11.2 kg/h): 4 (100% control) | post-emergent herbicidal activity index (Cocklebur [4]; Table II, 0.28 kg/h): 1 (25-49% control) | post-emergent herbicidal activity index (Cocklebur [4]; Table II, 1.12 kg/h): 1 (25-49% control) | post-emergent herbicidal activity index (Cocklebur [4]; Table II, 5.6 kg/h): 4 (100% control) | post-emergent herbicidal activity index (Smartweed [5]; Table I, 5.6 kg/h): 2 (50-74% control) | post-emergent herbicidal activity index (Smartweed [5]; Table I, 11.2 kg/h): 3 (75-99% control) | post-emergent herbicidal activity index (Smartweed [5]; Table II, 0.28 kg/h): 2 (50-74% control) | post-emergent herbicidal activity index (Smartweed [5]; Table II, 1.12 kg/h): 2 (50-74% control) | post-emergent herbicidal activity index (Smartweed [5]; Table II, 5.6 kg/h): 1 (25-49% control) | post-emergent herbicidal activity index (Soybean; 0.28 kg/h): 1 (25-49% control) | post-emergent herbicidal activity index (Soybean; 1.12 kg/h): 3 (75-99% control) | post-emergent herbicidal activity index (Soybean; 5.6 kg/h): 4 (100% control) | post-emergent herbicidal activity index (Downy Brome [6]; Table I, 5.6 kg/h): 2 (50-74% control) | post-emergent herbicidal activity index (Downy Brome [6]; Table I, 11.2 kg/h): 3 (75-99% control) | post-emergent herbicidal activity index (Downy Brome [6]; Table II, 0.28 kg/h): 2 (50-74% control) | post-emergent herbicidal activity index (Downy Brome [6]; Table II, 1.12 kg/h): 1 (25-49% control) | post-emergent herbicidal activity index (Downy Brome [6]; Table II, 5.6 kg/h): 4 (100% control) | post-emergent herbicidal activity index (Barnyardgrass [7]; Table I, 5.6 kg/h): 3 (75-99% control) | post-emergent herbicidal activity index (Barnyardgrass [7]; Table I, 11.2 kg/h): 3 (75-99% control) | post-emergent herbicidal activity index (Barnyardgrass [7]; Table II, 0.28 kg/h): 2 (50-74% control) | post-emergent herbicidal activity index (Barnyardgrass [7]; Table II, 1.12 kg/h): 3 (75-99% control) | post-emergent herbicidal activity index (Barnyardgrass [7]; Table II, 5.6 kg/h): 3 (75-99% control) | post-emergent herbicidal activity index (Panicum Spp; 0.28 kg/h): 4 (100% control) | post-emergent herbicidal activity index (Panicum Spp; 1.12 kg/h): 4 (100% control) | post-emergent herbicidal activity index (Panicum Spp; 5.6 kg/h): 4 (100% control) | post-emergent herbicidal activity index (Velvetleaf [8]; Table I, 5.6 kg/h): 3 (75-99% control) | post-emergent herbicidal activity index (Velvetleaf [8]; Table I, 11.2 kg/h): 4 (100% control) | post-emergent herbicidal activity index (Velvetleaf [8]; Table II, 0.28 kg/h): 1 (25-49% control) | post-emergent herbicidal activity index (Velvetleaf [8]; Table II, 1.12 kg/h): 3 (75-99% control) | post-emergent herbicidal activity index (Velvetleaf [8]; Table II, 5.6 kg/h): 3 (75-99% control) | post-emergent herbicidal activity index (Lambsquarters [9]; Table I, 5.6 kg/h): 4 (100% control) | post-emergent herbicidal activity index (Lambsquarters [9]; Table I, 11.2 kg/h): 4 (100% control) | post-emergent herbicidal activity index (Lambsquarters [9]; Table II, 0.28 kg/h): 4 (100% control) | post-emergent herbicidal activity index (Lambsquarters [9]; Table II, 1.12 kg/h): 4 (100% control) | post-emergent herbicidal activity index (Lambsquarters [9]; Table II, 5.6 kg/h): 4 (100% control) | post-emergent herbicidal activity index (Wheat; 0.28 kg/h): 2 (50-74% control) | post-emergent herbicidal activity index (Wheat; 1.12 kg/h): 3 (75-99% control) | post-emergent herbicidal activity index (Wheat; 5.6 kg/h): 3 (75-99% control) | post-emergent herbicidal activity index (Morningglory [10]; Table I, 5.6 kg/h): 2 (50-74% control) | post-emergent herbicidal activity index (Morningglory [10]; Table I, 11.2 kg/h): 3 (75-99% control) | post-emergent herbicidal activity index (Morningglory [10]; Table II, 0.28 kg/h): 2 (50-74% control) | post-emergent herbicidal activity index (Morningglory [10]; Table II, 1.12 kg/h): 2 (50-74% control) | post-emergent herbicidal activity index (Morningglory [10]; Table II, 5.6 kg/h): 2 (50-74% control) | post-emergent herbicidal activity index (Rice; 0.28 kg/h): 1 (25-49% control) | post-emergent herbicidal activity index (Rice; 1.12 kg/h): 2 (50-74% control) | post-emergent herbicidal activity index (Rice; 5.6 kg/h): 3 (75-99% control) | post-emergent herbicidal activity index (Sorghum; 0.28 kg/h): 2 (50-74% control) | post-emergent herbicidal activity index (Sorghum; 1.12 kg/h): 1 (25-49% control) | post-emergent herbicidal activity index (Sorghum; 5.6 kg/h): 3 (75-99% control) | pre-emergent herbicidal activity index (Johnsongrass [11]): 0 (1-24% control) | pre-emergent herbicidal activity index (Quackgrass [12]): 0 (1-24% control) | pre-emergent herbicidal activity index (Yellow Nutsedge [13]): 1 (25-49% control) | pre-emergent herbicidal activity index (Cocklebur [14]): 0 (1-24% control) | pre-emergent herbicidal activity index (Smartweed [15]): 0 (1-24% control) | pre-emergent herbicidal activity index (Downy Brome [16]): 0 (1-24% control) | pre-emergent herbicidal activity index (Barnyardgrass [17]): 0 (1-24% control) | pre-emergent herbicidal activity index (Velvetleaf [18]): 0 (1-24% control) | pre-emergent herbicidal activity index (Lambsquarters [19]): 0 (1-24% control) | pre-emergent herbicidal activity index (Morningglory [20]): 0 (1-24% control)
